The record followed here is patent publication US6706709B2, “Indolinone derivatives as protein kinase/phosphatase inhibitors” (Sugen, Inc., priority 2000, dated 2004).

In one experiment the target is T1, EGF Receptor (Homo sapiens, UniProt P00533).
T1 construct: expressed in transfected cells; host or cells: NIH 3T3/C7 (mouse fibroblasts engineered to express human EGF-R)
Nature of the experiment: bio EGF (EGF Receptor ELISA). In kind it is biochemical. In outline:
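Cells engineered to express human EGFR, seeded in 0.5% serum for ~40 h, then exposed to drug (stock diluted to 1:200 final, 1% DMSO) before 5 min EGF stimulation at 25 nM final. Lysates captured on anti-EGFR-coated plates, and phosphotyrosine detected by anti-pTyr/HRP ELISA at 410 nm. Percent inhibition calculated relative to control wells after negative-control subtraction.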
(In general: An ELISA detects its analyte on a solid surface through an enzyme-linked reagent.)

Another experiment has as its target GST-Flk1 (UniProt P35918). Nature of the experiment: GST-FLK-1 bioassay (bio flkGST). In kind it is biochemical. In outline:
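ELISA with Sf9-expressed GST-Flk1cd (5 ng/well) phosphorylating plate-coated poly(Glu,Tyr) 4:1 in Hepes pH 7.5 with MnCl2 and ATP (2 μM as 4× stock), 15 min at room temperature; EDTA stop. Phosphotyrosine detected with PY99-HRP and ABTS at 410 nm.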

What is called IC50 is the concentration at which inhibition is half-maximal. Low readings indicate greater potency, high ones weaker potency.

T1 sequence (P00533 25-1210): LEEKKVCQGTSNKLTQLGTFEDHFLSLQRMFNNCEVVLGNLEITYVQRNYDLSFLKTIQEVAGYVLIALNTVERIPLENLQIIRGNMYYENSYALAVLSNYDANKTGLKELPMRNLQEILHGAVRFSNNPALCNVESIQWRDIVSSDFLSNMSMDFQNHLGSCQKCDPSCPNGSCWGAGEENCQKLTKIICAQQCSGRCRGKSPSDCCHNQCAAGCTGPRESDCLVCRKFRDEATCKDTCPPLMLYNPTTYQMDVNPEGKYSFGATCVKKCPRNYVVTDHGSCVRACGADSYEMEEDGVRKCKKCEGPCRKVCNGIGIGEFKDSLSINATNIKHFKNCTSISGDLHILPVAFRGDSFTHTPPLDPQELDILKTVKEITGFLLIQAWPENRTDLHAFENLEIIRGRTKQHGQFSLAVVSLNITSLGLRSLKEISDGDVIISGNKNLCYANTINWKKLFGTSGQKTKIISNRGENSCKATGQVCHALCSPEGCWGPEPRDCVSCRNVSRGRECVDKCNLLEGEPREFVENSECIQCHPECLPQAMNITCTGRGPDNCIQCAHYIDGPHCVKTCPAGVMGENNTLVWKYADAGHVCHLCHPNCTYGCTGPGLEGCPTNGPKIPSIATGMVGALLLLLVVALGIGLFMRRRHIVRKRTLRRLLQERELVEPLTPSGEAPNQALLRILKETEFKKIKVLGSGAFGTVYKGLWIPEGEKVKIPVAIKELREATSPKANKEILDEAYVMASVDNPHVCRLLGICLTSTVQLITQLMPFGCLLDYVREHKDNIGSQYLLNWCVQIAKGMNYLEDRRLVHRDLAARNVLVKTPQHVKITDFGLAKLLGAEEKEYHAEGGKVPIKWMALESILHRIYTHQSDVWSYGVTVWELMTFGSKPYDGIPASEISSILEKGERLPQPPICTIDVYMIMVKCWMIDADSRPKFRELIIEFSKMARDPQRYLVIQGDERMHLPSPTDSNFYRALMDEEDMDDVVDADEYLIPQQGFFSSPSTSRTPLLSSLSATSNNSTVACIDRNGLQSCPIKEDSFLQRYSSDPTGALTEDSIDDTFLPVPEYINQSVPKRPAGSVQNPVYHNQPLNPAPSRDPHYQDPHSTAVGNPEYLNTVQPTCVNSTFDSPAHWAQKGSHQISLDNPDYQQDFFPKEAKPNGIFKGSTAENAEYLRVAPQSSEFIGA

Consider `O=C1Nc2cc(-c3ccc(F)cc3)ccc2C1=Cc1cc2cc(OCCN3CCOCC3)ccc2[nH]1` [IN-038, 6-(4-fluoro-phenyl)-3-[5-(2-morpholin-4-yl-ethoxy)-1H-indol-2-ylmethylene]-1,3-dihydro-indol-2-one], for which the IC50 against EGF Receptor was over 20 µM; at GST-Flk1, over 10000 nM.

As for `Cc1[nH]c2ccccc2c1C=C1C(=O)Nc2ccc(S(N)(=O)=O)cc21` [IN-066, 3-(2-methyl-1H-indol-3-ylmethylene)-2-oxo-2,3-dihydro-1H-indole-5-sulfonic acid amide], the IC50 at EGF Receptor is over 100 µM; against GST-Flk1, over 20000 nM.

Take `CNS(=O)(=O)c1ccc2c(c1)C(=Cc1cc3cc(OCCN4CCCC4)ccc3[nH]1)C(=O)N2` [IN-041, 2-oxo-3-[5-(2-pyrrolidin-1-yl-ethoxy)-1H-indol-2-ylmethylene]-2,3-dihydro-1H-indole-5-sulfonic acid methylamide]: the values for the IC50 on EGF Receptor and against GST-Flk1 were 8.43 µM and 210 nM, respectively.

For the compound `COc1cccc(-c2ccc3c(c2)NC(=O)C3=Cc2cc3cc(OCCN4CCOCC4)ccc3[nH]2)c1` [IN-036, 6-(3-methoxy-phenyl)-3-[5-(2-morpholin-4-yl-ethoxy)-1H-indol-2-ylmethylene]-1,3-dihydro-indol-2-one], the IC50 is over 20 µM at EGF Receptor and over 20000 nM on GST-Flk1.

Turning to `O=C1Nc2cc(-c3cccnc3)ccc2C1=Cc1cc2cc(OCCN3CCOCC3)ccc2[nH]1` [IN-034, 3-[5-(2-morpholin-4-yl-ethoxy)-1H-indol-2-ylmethylene]-6-pyridin-3-yl-1,3-dihydro-indol-2-one], the IC50 against EGF Receptor is over 20 µM; against GST-Flk1, 14000 nM.

Take `CC(C)NS(=O)(=O)c1ccc2c(c1)C(=Cc1cc3cc(OCCN4CCOCC4)ccc3[nH]1)C(=O)N2` [IN-055, 3-[5-(2-morpholin-4-yl-ethoxy)-1H-indol-2-ylmethylene]-2-oxo-2,3-dihydro-1H-indole-5-sulfonic acid isopropylamide]: the IC50 against EGF Receptor is 3.5 µM; on GST-Flk1, 1500 nM.

With `COc1ccc(-c2ccc3c(c2)NC(=O)C3=Cc2cc3cc(OCCN4CCOCC4)ccc3[nH]2)cc1` [IN-035, 6-(4-methoxy-phenyl)-3-[5-(2-morpholin-4-yl-ethoxy)-1H-indol-2-ylmethylene]-1,3-dihydro-indol-2-one], the 50% inhibitory concentration (IC50) was over 20 µM on EGF Receptor and over 20000 nM at GST-Flk1.

As for `O=C1Nc2ccc(S(=O)(=O)N3CCc4cc(Br)ccc43)cc2C1=Cc1cc2cc(OCCN3CCOCC3)ccc2[nH]1` [IN-064, 5-(5-bromo-2,3-dihydro-indole-1-sulfonyl)-3-[5-(2-morpholin-4-yl-ethoxy)-1H-indol-2-ylmethylene]-1,3-dihydro-indol-2-one], the IC50 on EGF Receptor was over 20 µM; on GST-Flk1, 17800 nM.

Turning to `CN(C)S(=O)(=O)c1ccc2c(c1)C(=Cc1ccc3[nH]ccc3c1)C(=O)N2` [IN-074, 3-(1H-indol-5-ylmethylene)-2-oxo-2,3-dihydro-1H-indole-5-sulfonic acid dimethylamide], the figures for the IC50 against EGF Receptor and against GST-Flk1 were over 100 µM and 1580 nM, respectively.

Regarding `O=C1Nc2ccc(S(=O)(=O)N3CCc4ccccc43)cc2C1=Cc1cc2cc(OCCN3CCOCC3)ccc2[nH]1` [IN-058, 5-(2,3-dihydro-indole-1-sulfonyl)-3-[5-(2-morpholin-4-yl-ethoxy)-1H-indol-2-ylmethylene]-1,3-dihydro-indol-2-one], the IC50 at EGF Receptor is over 20 µM; against GST-Flk1, 8490 nM.

On to `CNS(=O)(=O)c1ccc2c(c1)C(=Cc1c(C)[nH]c3ccccc13)C(=O)N2` [IN-069, 3-(2-methyl-1H-indol-3-ylmethylene)-2-oxo-2,3-dihydro-1H-indole-5-sulfonic acid methylamide], for which the IC50 was over 100 µM against EGF Receptor and 12800 nM against GST-Flk1.

Regarding `CCN(CC)CCCc1ccc2[nH]c(C=C3C(=O)Nc4cc(-c5ccccc5)ccc43)cc2c1` [IN-003, 3-[5-(3-diethylamino-propyl)-1H-indol-2-ylmethylene]-6-phenyl-1,3-dihydro-indol-2-one], the IC50 is 61.3 µM against EGF Receptor and 1560 nM at GST-Flk1.

On to `CN(C)S(=O)(=O)c1ccc2c(c1)C(=Cc1cc3cc(OCCN4CCCC4)ccc3[nH]1)C(=O)N2` [IN-042, 2-oxo-3-[5-(2-pyrrolidin-1-yl-ethoxy)-1H-indol-2-ylmethylene]-2,3-dihydro-1H-indole-5-sulfonic acid dimethylamide], for which the IC50 against EGF Receptor turned out to be 7.84 µM; on GST-Flk1, 1340 nM.

In the case of `O=C1Nc2ccc(S(=O)(=O)Nc3cccnc3)cc2C1=Cc1cc2cc(OCCN3CCOCC3)ccc2[nH]1` [IN-057, 3-[5-(2-morpholin-4-yl-ethoxy)-1H-indol-2-ylmethylene]-2-oxo-2,3-dihydro-1H-indole-5-sulfonic acid pyridin-3-ylamide], the figures for the IC50 against EGF Receptor and at GST-Flk1 were over 20 µM and over 20000 nM, respectively.

With `CN(C)CCOc1ccc2[nH]c(C=C3C(=O)Nc4cc(-c5ccccc5)ccc43)cc2c1` [IN-012, 3-[5-(2-dimethylamino-ethoxy)-1H-indol-2-ylmethylene]-6-phenyl-1,3-dihydro-indol-2-one], the figures for the IC50 on EGF Receptor and against GST-Flk1 were over 100 µM and 1950 nM, respectively.

In the case of `CNS(=O)(=O)c1ccc2c(c1)C(=Cc1ccc3[nH]ccc3c1)C(=O)N2` [IN-070, 3-(1H-indol-5-ylmethylene)-2-oxo-2,3-dihydro-1H-indole-5-sulfonic acid methylamide], the results for the IC50 on EGF Receptor and against GST-Flk1 were over 100 µM and 2330 nM, respectively.

In the case of `CC(C)NS(=O)(=O)c1ccc2c(c1)C(=Cc1cc3cc(OCCN4CCCC4)ccc3[nH]1)C(=O)N2` [IN-043, 2-oxo-3-[5-(2-pyrrolidin-1-yl-ethoxy)-1H-indol-2-ylmethylene]-2,3-dihydro-1H-indole-5-sulfonic acid isopropylamide], the IC50 against EGF Receptor was determined as 4.35 µM; against GST-Flk1, 270 nM.

Take `CN(C)S(=O)(=O)c1ccc2c(c1)C(=Cc1cc3ccccc3[nH]1)C(=O)N2` [IN-075, 3-(1H-indol-2-ylmethylene)-2-oxo-2,3-dihydro-1H-indole-5-sulfonic acid dimethylamide]: the figures for the IC50 against EGF Receptor and against GST-Flk1 were over 100 µM and 6510 nM, respectively.

Regarding `Cc1[nH]c2ccccc2c1C=C1C(=O)Nc2ccc(S(=O)(=O)N(C)C)cc21` [IN-073, 3-(2-methyl-1H-indol-3-ylmethylene)-2-oxo-2,3-dihydro-1H-indole-5-sulfonic acid dimethylamide], the IC50 was over 100 µM at EGF Receptor and over 20000 nM on GST-Flk1.

In the case of `O=C1Nc2cc(C(=O)O)ccc2C1=Cc1cc2cc(OCCN3CCOCC3)ccc2[nH]1` [IN-031, 3-[5-(2-morpholin-4-yl-ethoxy)-1H-indol-2-ylmethylene]-2-oxo-2,3-dihydro-1H-indole-6-carboxylic acid], the IC50 against EGF Receptor is over 20 µM; against GST-Flk1, 530 nM.

Take `O=C1Nc2ccc(C(=O)O)cc2C1=Cc1cc2cc(OCCN3CCCC3)ccc2[nH]1` [IN-022, 2-oxo-3-[5-(2-pyrrolidin-1-yl-ethoxy)-1H-indol-2-ylmethylene]-2,3-dihydro-1H-indole-5-carboxylic acid]: the IC50 at EGF Receptor was over 20 µM; on GST-Flk1, 140 nM.

On to `O=C1Nc2ccccc2C1=Cc1cc2cc(OCCN3CCOCC3)ccc2[nH]1` [IN-007, 3-[5-(2-morpholin-4-yl-ethoxy)-1H-indol-2-ylmethylene]-1,3-dihydro-indol-2-one], for which the IC50 turned out to be 37.4 µM against EGF Receptor and 400 nM at GST-Flk1.

Consider `O=C1Nc2ccc(S(=O)(=O)N3CCCc4ccccc43)cc2C1=Cc1cc2cc(OCCN3CCOCC3)ccc2[nH]1` [IN-062, 5-(3,4-dihydro-2H-quinoline-1-sulfonyl)-3-[5-(2-morpholin-4-yl-ethoxy)-1H-indol-2-ylmethylene]-1,3-dihydro-indol-2-one], for which the figures for the IC50 at EGF Receptor and at GST-Flk1 were over 20 µM and 15400 nM, respectively.

Take `O=C1Nc2ccc(S(=O)(=O)Nc3ccc(Cl)cc3F)cc2C1=Cc1cc2cc(OCCN3CCCC3)ccc2[nH]1` [IN-049, 2-oxo-3-[5-(2-pyrrolidin-1-yl-ethoxy)-1H-indol-2-ylmethylene]-2,3-dihydro-1H-indole-5-sulfonic acid (4-chloro-2-fluoro-phenyl)-amide]: the IC50 at EGF Receptor stood at 4.38 µM; at GST-Flk1 it was 130 nM.

In the case of `CN(C)CCOc1ccc2[nH]c(C=C3C(=O)Nc4ccc(-c5ccccc5)cc43)cc2c1` [IN-005, 3-[5-(2-dimethylamino-ethoxy)-1H-indol-2-ylmethylene]-5-phenyl-1,3-dihydro-indol-2-one], the values for the IC50 on EGF Receptor and against GST-Flk1 were 16.3 µM and 310 nM, respectively.

As to `O=C1Nc2ccc(S(=O)(=O)Nc3ccc(Cl)cc3F)cc2C1=Cc1cc2cc(OCCN3CCOCC3)ccc2[nH]1` [IN-061, 3-[5-(2-morpholin-4-yl-ethoxy)-1H-indol-2-ylmethylene]-2-oxo-2,3-dihydro-1H-indole-5-sulfonic acid (4-chloro-2-fluoro-phenyl)-amide], the results for the IC50 at EGF Receptor and at GST-Flk1 were 4.46 µM and 390 nM, respectively.

Regarding `CN(C)CCOc1ccc2[nH]c(C=C3C(=O)Nc4ccccc43)cc2c1` [IN-010, 3-[5-(2-dimethylamino-ethoxy)-1H-indol-2-ylmethylene]-1,3-dihydro-indol-2-one], the figures for the IC50 against EGF Receptor and against GST-Flk1 were 88.8 µM and 350 nM, respectively.

For the compound `O=C1Nc2ccc(Br)cc2C1=Cc1cc2cc(OCCN3CCOCC3)ccc2[nH]1` [IN-008, 5-bromo-3-[5-(2-morpholin-4-yl-ethoxy)-1H-indol-2-ylmethylene]-1,3-dihydro-indol-2-one], the IC50 was determined as 1.97 µM against EGF Receptor and 220 nM against GST-Flk1.

With `O=C1Nc2cc(-c3ccc(F)cc3)ccc2C1=Cc1cc2cc(OCCN3CCCC3)ccc2[nH]1` [IN-029, 6-(4-fluoro-phenyl)-3-[5-(2-pyrrolidin-1-yl-ethoxy)-1H-indol-2-ylmethylene]-1,3-dihydro-indol-2-one], the IC50 against EGF Receptor is over 20 µM; against GST-Flk1, 760 nM.
